# Measurements: paper PMC3857906, “Ligand-Specific Regulation of the Endogenous Mu-Opioid Receptor by Chronic Treatment with Mu-Opioid Peptide Agonists” (BioMed Research International, 2013)
# Like-named read-outs stand apart in the source and are kept apart here.
# Key:
# [1] = Tail-flick (TF) antinociceptive assay after icv peptide administration; format: in vivo, rat; details: for treatment duration until behavioral tolerance complete: 10 μg icv twice daily, data not shown
# Experimental: For intracerebroventricular (icv) peptide administration, the rats were implanted with a stainless steel Luer cannula (10 mm long) aimed at the right lateral cerebral ventricle under Nembutal (35 mg/kg, intraperitoneally) anesthesia. The stereotaxic coordinates were 0.2 mm posterior, 1.7 mm lateral to the bregma, and 3.7 mm deep from the dural surface, according to the atlas of Pellegrino et al.. Cannulas were secured to the skull with dental cement and acrylate. The experiments were started 5 days after icv cannulation. All icv treatments were delivered to freely moving animals to prevent unspecific effects. Upon conclusion of the experiments, 10 μL of methylene blue was injected into the ventricle of decapitated animals and the position of the cannula was inspected visually. Animals with improper cannula placement were excluded from the final statistical analysis.
# (§1) The peptides were dissolved in artificial cerebrospinal fluid (CSF) and injected in a volume of 2 μL. Endomorphins were administered either acutely at the indicated doses (100 pg–20 μg) or chronically at 20 μg for 10 days (twice daily) and tested at the indicated times. Vehicle control groups obtaining CSF were used in all experiments, and no changes were detected in the antinociceptive response of the control group. […] Animals were killed 16 hrs after drug treatments by decapitation immediately followed by subcellular fractionation.
# The original method of D'Amour was used to determine analgesia in the rat by measuring the time required to respond to a radiating heat stimulus. A beam light was focused on the tip of the tail, and the latency required for the rat to remove its tail was determined before (baseline) and after drug administration. The animals were tested at the times shown after injection of the peptides. The antinociceptive effect was expressed according to the equation: (TFn − TFo) × 100/TFmax − TFo, where TFo is the tail-flick latency before drug administration, TFn is the value of a repeated corresponding measurement after drug injection, and TFmax indicates the cutoff time which was set at 10 sec in our assays. Statistical analysis of the data of tail-flick antinociceptive test was made by ANOVA. For significant ANOVA values, groups were compared by Tukey's test for multiple comparisons with unequal cell size. A probability level, P < 0.05, was accepted to label significant differences.
# [2] = target: T1, mu-opioid receptors (G-protein activation) (Rattus norvegicus, UniProt P33535); assay: Ligand-stimulated [35S]GTPγS functional assay in crude rat brain membranes; format: biochemical
# T1 construct: from tissue; host or cells: rat brain without cerebella, crude membranes
# T1 sequence (P33535 whole entry): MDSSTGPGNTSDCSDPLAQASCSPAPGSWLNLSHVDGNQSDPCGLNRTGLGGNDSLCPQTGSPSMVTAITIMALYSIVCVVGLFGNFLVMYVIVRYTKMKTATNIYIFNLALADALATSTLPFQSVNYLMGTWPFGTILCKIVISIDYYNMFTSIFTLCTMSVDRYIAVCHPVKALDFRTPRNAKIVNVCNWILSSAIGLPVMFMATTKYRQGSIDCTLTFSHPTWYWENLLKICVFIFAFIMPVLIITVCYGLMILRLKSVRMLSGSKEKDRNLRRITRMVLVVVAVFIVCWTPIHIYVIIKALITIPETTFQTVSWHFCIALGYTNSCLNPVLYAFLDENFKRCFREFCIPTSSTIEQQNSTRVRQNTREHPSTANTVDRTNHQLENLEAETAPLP
# Experimental: (§2) The assay was performed as published with slight modifications. Briefly, rat brain membrane fractions (≈10 μg of protein) were incubated with [^35S]GTPγS (0.05 nM) and 5-6 concentrations (10^−9−10^−4 M) of opioid peptides in the presence of 100 μM GDP in Tris-EGTA (50 mM Tris-HCl, 1 mM EGTA and 5 mM MgCl2; pH 7.4) buffer in a total volume of 1 mL for 60 min at 30°C. Nonspecific binding was determined with 10 μM GTPγS and subtracted. Bound and free [^35S]GTPγS were separated by vacuum filtration through Whatman GF/F filters using a Brandel M24-R Cell Harvester (Brandel, Gaithersburg, MD, USA). Filters were rapidly washed with 3 × 5 mL ice-cold 50 mM Tris-HCl (pH 7.4) buffer, air-dried, and counted in a toluene-based scintillation cocktail in a Wallac 1409 scintillation counter (Wallac, Turku, Finland). All assays were performed in triplicate and repeated at least three times. Curves were constructed and analyzed by fitting sigmoidal dose-response curves using the GraphPad Prism 4 program (GraphPad Prism Software Inc) to obtain potency (EC50, concentration of the ligand to give half-maximal effect) and efficacy (E max, % maximal stimulation over basal activity) values. Basal activities were measured in the absence of opioid ligands and set as 0%. The data reported are means ± S.E.M.
# [3] = target: T2, mu-opioid receptors (coupling to G-proteins) (Rattus norvegicus, UniProt P33535); assay: DAMGO-stimulated [35S]GTPγS binding in rat brain subcellular fractions (SPM, MI) after in vivo chronic opioid peptide treatment; format: biochemical; details: for effect of chronic treatment on G-protein coupling / [35S]GTPγS incorporation: 10 μg icv twice daily for 8 days
# T2 construct: fresh forebrains of four rats were pooled, gently homogenized; from tissue; host or cells: rat forebrain, synaptic plasma membrane (SPM) and microsomal (MI) fractions, from vehicle- or peptide-treated animals
# T2 sequence (P33535 whole entry): as above
# Experimental: The peptides were dissolved in artificial cerebrospinal fluid (CSF) and injected in a volume of 2 μL. […] Animals were killed 16 hrs after drug treatments by decapitation immediately followed by subcellular fractionation.
# Subcellular fractions of rat brains were purified as published. Briefly, fresh forebrains of four rats were pooled, gently homogenized in 10 volumes (v/w) of ice-cold buffer (5 mM Tris-HCl pH 7.4, 50 μM CaCl2, 0.5 mM dithiothreitol), and supplemented with 10% sucrose. All sucrose solutions were made in the above buffer. The homogenate was spun at 1,000 ×g for 10 min. The resulting pellet was resuspended in the above buffer and spun again. The combined supernatants were spun at 12,000 ×g for 20 min. The pellets were suspended in 10% sucrose and subjected to consecutive centrifugations at 20,000 ×g for 25 min and 14,000 ×g for 20 min twice resulting in crude synaptic plasma membranes (SPM). The resulting pellets were lysed followed by fractionation on a 10%, 28.5%, and 34% sucrose density step gradient that was spun at 100,000 ×g for 2 h. Highly enriched SPMs were obtained from the 28/34% interface. Crude microsomal (MI) fractions were obtained from the 12,000 ×g supernatant by consecutive centrifugations at 20,000 ×g for 25 min and 100,000 ×g for 1 h. MI fractions were purified on a 10% and 28.5% sucrose step gradient centrifuged at 100,000 ×g for 2 h and collected at 10/28.5% interface. SPM and MI fractions were diluted threefold with 50 mM Tris-HCl buffer and pelleted at 100,000 ×g for 1 h to remove sucrose. The resulting pellets were taken up in 50 mM Tris-HCl (pH 7.4) buffer to yield in 0.3–0.8 mg membrane protein/ml and were freshly used.
# as §2
# mu-opioid receptors [4] = target: T3, mu-opioid receptors (Rattus norvegicus, UniProt P33535); assay: [3H]DAMGO homologous displacement binding in rat brain subcellular fractions (SPM, MI) after in vivo treatment; design: fresh forebrains of four rats were pooled, gently homogenized; from tissue; host or cells: rat forebrain, synaptic plasma membrane (SPM) and microsomal (MI) fractions, from vehicle- or peptide-treated animals; details: chronic treatment, vs vehicle control
# T3 sequence (P33535 whole entry): as above
# Experimental: as §1, with “times.” for “times. Vehicle control groups obtaining CSF were used in all experiments, and no changes were detected in the antinociceptive response of the control group.”
# Subcellular fractions of rat brains were purified as published. Briefly, fresh forebrains of four rats were pooled, gently homogenized in 10 volumes (v/w) of ice-cold buffer (5 mM Tris-HCl pH 7.4, 50 μM CaCl2, 0.5 mM dithiothreitol), and supplemented with 10% sucrose. All sucrose solutions were made in the above buffer. The homogenate was spun at 1,000 ×g for 10 min. The resulting pellet was resuspended in the above buffer and spun again. The combined supernatants were spun at 12,000 ×g for 20 min. The pellets were suspended in 10% sucrose and subjected to consecutive centrifugations at 20,000 ×g for 25 min and 14,000 ×g for 20 min twice resulting in crude synaptic plasma membranes (SPM). […]
# Filters were rapidly washed with 3 × 5 mL ice-cold 50 mM Tris-HCl (pH 7.4) buffer, air-dried, and counted in a toluene-based scintillation cocktail in a Wallac 1409 scintillation counter (Wallac, Turku, Finland). […]
# [5] = shown previously; cited from earlier work
# mu-opioid receptors [6] = target: T3, mu-opioid receptors; details: icv administration, in situ autoradiography; cited from earlier work
compound,measurement,setting,value
"NC(=O)[C@H](Cc1ccccc1)NC(=O)[C@H](Cc1ccccc1)NC(=O)[C@H]1CCCC[C@H]1NC(=O)[C@@H](N)Cc1ccc(O)cc1 [ACHC-EM2, cis-1S,2R-aminocyclohexanecarboxylic acid^2-endomorphin-2]",treatment duration until analgesic tolerance complete (antinociceptive effect ceased),"[1]; 20 μg icv twice daily, rat tail-flick",≤ 10 days
same,day by which decrease of antinociceptive effect became statistically significant vs day 1,"[1]; 20 μg icv twice daily, tested 5 and 15 min after injection",≤ 5 days
same,time of peak acute antinociceptive effect,"[1]; rat tail-flick, after icv injection",10 to 15 min
same,time by which acute antinociceptive effect dissipated,"[1]; rat tail-flick, following icv injection",≤ 40 min
same,increase in analgesic response compared to base-line values,"[1]; rat tail-flick, icv, lower doses, concentration-dependent",20–50%
"C[C@@H](NC(=O)[C@@H](N)Cc1ccc(O)cc1)C(=O)NCC(=O)N(C)[C@@H](Cc1ccccc1)C(=O)NCCO [DAMGO, Tyr-D-Ala-Gly-(NMe)Phe-Gly-ol]",agonist character in [35S]GTPγS assay,[2],full agonist
same,treatment duration until behavioral tolerance complete,[1],≤ 8 days
same,effect of chronic treatment on G-protein coupling / [35S]GTPγS incorporation,[3],did not cause any change
same,Emax,[3]; read-out: E max (% over basal) MI Treated,72 ± 9%
same,Emax,[3]; read-out: E max (% over basal) SPM Treated,130 ± 14%
same,Emax,"[3]; read-out: efficacy (E max) of DAMGO in control MI, MI of vehicle administered rats, % over basal",85 ± 9%
same,Emax,"[3]; read-out: efficacy (E max) of DAMGO in control SPM, SPM of vehicle administered rats, % over basal",95 ± 5%
same,decrease in the density of surface mu-sites (SPM),mu-opioid receptors [4],22%
same,antinociception,[5],about 80%
same,time of peak antinociceptive effect,[5],about 30 min
COC(=O)/C=C/C(=O)N[C@@H]1CC[C@@]2(O)[C@H]3Cc4ccc(O)c5c4[C@@]2(CCN3CC2CC2)[C@H]1O5 [beta-funaltrexamine],reduction of the density of mu-opioid receptors throughout the brain,mu-opioid receptors [6],40–50%
Tyr-D-Ala-Gly-(NMe)Phe-CH2Cl [DAMCK],treatment duration until behavioral tolerance complete,[1],≤ 8 days
same,effect of chronic treatment on G-protein coupling / [35S]GTPγS incorporation,[3],attenuated G-protein coupling in the MI fraction
same,increase in the density of mu-sites in the MI (light membrane) fraction,mu-opioid receptors [4],40%
same,antinociception,[5],about 80%
same,duration of antinociception,[5],apparently irreversible antinociception
